Where a name gives a salt, the structure may show the parent alone.
experiment: not given; conditions: 0.1 molar solution, (literature); cited from earlier work

| SMILES | Osmot. coefficient |
| --- | --- |
| [Cl-].[Na+] [NaCl] | 0.926 |

experiment: Osmotic coefficient and osmolality of solutions; type: physicochemical; conditions: not given
Description: a) Osmotic Coefficients of Compounds According to the Invention and not According to the Invention

| SMILES | Osmot. valence |
| --- | --- |
| Cl.N=C(N)NCCC[C@H](N)C(=O)O [Arg HCl, arginine hydrochloride] | 2 |
| NCCCC[C@H](N)C(=O)O [Lysine, lysine] | 1 |
| N=C(N)NCCC[C@H](N)C(=O)O.O=C(O)O [Arg HCO3] | 2 |
| N=C(N)NCCC[C@H](N)C(=O)O [Arginine, arginine] | 1 |
| O=C(O)CC(O)(CC(=O)O)C(=O)O [citric acid] | 3 |
| O=C(O)CC(O)(CC(=O)O)C(=O)O [K3 citrate] | 4 |
| O=C(O)CC(O)(CC(=O)O)C(=O)O [Na3 citrate] | 4 |
| O=C([O-])O.[Na+] [NaHCO3] | 2 |
| [Cl-].[Na+] [NaCl] | 2 |

same assay, conditions: 0.1 molar solution

| SMILES | Osmot. coefficient | osmolality |
| --- | --- | --- |
| Cl.N=C(N)NCCC[C@H](N)C(=O)O [Arg HCl, arginine hydrochloride] | 0.895 | – |
| NCCCC[C@H](N)C(=O)O [Lysine, lysine] | 1.000 | – |
| N=C(N)NCCC[C@H](N)C(=O)O.O=C(O)O [Arg HCO3] | 0.833 | – |
| O=C(O)CC(O)(CC(=O)O)C(=O)O [Lys3 citrate, tri-lysine citrate] | 0.715 | – |
| N=C(N)NCCC[C@H](N)C(=O)O [Arginine, arginine] | 0.980 | 98 mosmol/kg H2O |
| O=C(O)CC(O)(CC(=O)O)C(=O)O [citric acid] | 0.555 | – |
| O=C(O)CC(O)(CC(=O)O)C(=O)O [K3 citrate] | 0.681 | – |
| O=C(O)CC(O)(CC(=O)O)C(=O)O [Na3 citrate] | 0.681 | – |

same assay, conditions: 0.1 molar solution, (assumed)

| SMILES | Osmot. coefficient |
| --- | --- |
| O=C([O-])O.[Na+] [NaHCO3] | 0.926 |

same assay, conditions: 0.2 m, 100% CO2 at 37° C.

| SMILES | Osmot. coefficient |
| --- | --- |
| N=C(N)NCCC[C@H](N)C(=O)O.O=C(O)O [Arg HCO3] | 0.2 m 0.833 100% CO2 at 37 °C |

same assay, conditions: 0.3 m, 100% CO2 at 37° C.

| SMILES | Osmot. coefficient |
| --- | --- |
| N=C(N)NCCC[C@H](N)C(=O)O.O=C(O)O [Arg HCO3] | 0.3 m 0.763 100% CO2 at 37 °C |

experiment: Feed of bicarbonate: arginine / arginine acetate solution equilibrated with CO2; type: physicochemical; conditions: ionic strength 160 mmol/l and 37° C.
Description: If a solution with 48 mmol/l arginine is mixed with 24 mmol/l acetic acid that gives a mixture respectively comprising 24 mmol/l arginine and arginine acetate with a pH-value of about 8.6. That pH-value corresponds to the effective pK value of arginine (ionic strength 160 mmol/l and 37° C.). If that solution is necessarily equilibrated after infusion in the patient to a pCO2 of about 40 mmHg a maximum of 24 mmol/l arginine HCO3 will occur. Thus the physiological values of about 24 mmol/l HCO3 and a pH-value of about 7.4 will occur (for comparison arginine equilibration with pure CO2 in Table 1).

| SMILES | effective pK value |
| --- | --- |
| N=C(N)NCCC[C@H](N)C(=O)O [Arginine, arginine] | about 8.6 |

experiment: Buffer properties / acid-base data of 0.1 molar salt solutions (37° C.); conditions: 0.1 molar solution
Description: NaOH mmol/l for ΔpH of 7.2-7.6: how much NaOH in mmol/l is necessary for that ΔpH.
2. β (mmol/l/pH): the buffer capacity calculated therefrom at pH 7.40.
Titr on 7.4 (mmol/l): how much NaOH is necessary to set a pH-value of 7.4.
If a physiological pH-value of 7.4 is to be set in a 0.1 molar solution then the corresponding additives are specified in the column Titration pH=7.4. It is therefore specified how much NaOH (mmol/l) is to be added to set that pH-value.

| SMILES | pH |
| --- | --- |
| CC(=O)O.NCCCC[C@H](N)C(=O)O [Lysine Acetate, lysine acetate] | 5.99 |
| NCCCC[C@H](N)C(=O)O [Lysine, lysine] | 9.55 |
| O=C(O)CC(O)(CC(=O)O)C(=O)O [Lys3 citrate, tri-lysine citrate] | 6.88 |
| N=C(N)NCCC[C@H](N)C(=O)O [Arginine, arginine] | 10.26 |
| CC(=O)O.N=C(N)NCCC[C@H](N)C(=O)O [Arg acetate, arginine acetate] | 5.99 |

same assay, conditions: 0.1 molar solution, NaOH necessary for ΔpH of 7.2-7.6

| SMILES | NaOH ΔpH 7.2-7.6 |
| --- | --- |
| CC(=O)O.NCCCC[C@H](N)C(=O)O [Lysine Acetate, lysine acetate] | 2.5 mmol/L |
| O=C(O)CC(O)(CC(=O)O)C(=O)O [Lys3 citrate, tri-lysine citrate] | 5.9 mmol/L |
| CC(=O)O.N=C(N)NCCC[C@H](N)C(=O)O [Arg acetate, arginine acetate] | 2.8 mmol/L |

same assay, conditions: 0.1 molar solution, NaOH necessary to set pH 7.4

| SMILES | Titr. on 7.4 |
| --- | --- |
| CC(=O)O.NCCCC[C@H](N)C(=O)O [Lysine Acetate, lysine acetate] | 6.8 mmol/L |
| O=C(O)CC(O)(CC(=O)O)C(=O)O [Lys3 citrate, tri-lysine citrate] | 5.8 mmol/L |
| CC(=O)O.N=C(N)NCCC[C@H](N)C(=O)O [Arg acetate, arginine acetate] | 7.3 mmol/L |

same assay, conditions: 0.1 molar solution, calculated from NaOH for ΔpH 7.2-7.6

| SMILES | β (at 7.4) buffer capacity |
| --- | --- |
| CC(=O)O.NCCCC[C@H](N)C(=O)O [Lysine Acetate, lysine acetate] | 6.3 mmol/l/pH |
| O=C(O)CC(O)(CC(=O)O)C(=O)O [Lys3 citrate, tri-lysine citrate] | 14.8 mmol/l/pH |
| CC(=O)O.N=C(N)NCCC[C@H](N)C(=O)O [Arg acetate, arginine acetate] | 7.0 mmol/l/pH |

experiment: not given; conditions: Table I, 37° C.; cited from earlier work

| SMILES | pK-values (first value) | pK-values (second value) | pK-values (third value) |
| --- | --- | --- | --- |
| NCCCC[C@H](N)C(=O)O [Lysine, lysine] | 2.2 | 8.9 | 10.3 |
| O=C(O)O [carbonic acid] | 6.1 | – | – |
| O=C(O)CC(O)C(=O)O (stereo not shown) [malic acid] | 3.5 | 4.7 | – |
| N=C(N)NCCC[C@H](N)C(=O)O [Arginine, arginine] | 2.0 | 9.0 | 12.1 |
| O=C(O)CC(O)(CC(=O)O)C(=O)O [citric acid] | 3.0 | 4.4 | 5.8 |
| CC(=O)O [acetic acid] | 4.6 | – | – |

same assay, conditions: cited from earlier work

| SMILES | pK |
| --- | --- |
| N [NH4^+] | 9.0 |
| O=C(O)O [HCO3^−] | 6.1 |
| O=S(=O)(O)CCN1CCN(CCO)CC1 [Hepes] | 7.35 |
| CC(=O)O.N=C(N)NCCC[C@H](N)C(=O)O [Arg acetate, arginine acetate] | 4.6 |
| NC(CO)(CO)CO [Tris] | 8.2 |

Source: patent US20140323573A1, “METABOLIZABLE SALTS AND USE THEREOF IN DIAGNOSTICS AND THERAPY” (priority 2011, published 2014)
